From patent US7193033B2, “Peptide having appetite stimulating activity” (Takeda Pharmaceutical Company Limited, priority 2001, dated 2007) come the findings set out here.

Experiment [1] addresses T1, GPR8 (Homo sapiens, UniProt P48146).
T1 construct: expressed in transfected cells
Description: Receptor binding test using [125I-Tyr10]-hGPR8L (1–23) and GPR8-expressed CHO cell membrane fraction. The following applies: inhibition of [125I-Tyr10]-hGPR8L (1–23) binding; membrane fraction 5 μg/ml. As for the experimental part: Receptor binding test was carried out using [^125I]-labeled hGPR8L (1–23) prepared as described in EXAMPLE 42 and the cell membrane fraction prepared from GPR8-expressed CHO cells prepared in a similar manner to the procedures described in EXAMPLE 6.
The cell membrane fraction prepared from human GPR8-expressed CHO cells was diluted with an assay buffer (25 mM Tris-HCl, 5 mM EDTA (ethylenediaminetetraacetic acid), 0.05% CHAPS (3-[(3-cholamidopropyl)dimethlammonio]-1-propanesulfonate), 0.1% BSA (bovine serum albumin), 0.25 mM PMSF (phenylmethylsulfonyl fluoride), 1 μg/ml pepstatin, 20 μg/ml leupeptin, pH 7.4) in various concentrations. Subsequently, 200 μl each of the dilution was dispensed in a polypropylene tst tube (Falcon 2053). […] After filtration, the residual radioactivity remained on the filter paper was measured with a γ-counter, and the specific binding (SB) was estimated by subtracting the non-specific binding from the total binding. […]
The receptor binding activity of the human and porcine homologue derivatives of the GPR8 ligand peptide, which synthesis was described in the specification, was determined s described in EXAMPLE 43, using the GPR8-expressed cell membrane fraction and [^125I-Tyr^10]-hGPR8L (1–23). […]

Experiment [2] addresses T1, GPR8. Description: GTPγ S binding promoting activity on GPR8-expressed CHO cell membrane fraction. The format is biochemical. As for the experimental part: The [^35S]-guanosine 5′-(γ-thio)triphosphate binding promoting activity on a GPR8-expressed CHO cell membrane fraction was assayed by the following procedures. First, preparation of the membrane fraction is described. To 1×10^8 of CHO/GPR8 cells was added 10 ml of a homogenate buffer (10 mM NaHCO3, 5 mM EDTA, 0.5 mM PMSF, 1 μg/ml pepstatin, 4 μg/ml E64, 20 μg/ml leupeptin). The mixture was homogenized by using Polytron (12,000 rpm, 1 min.). The cell homogenate was subjected to centrifugation (1,000 g, 15 mins.) to obtain the supernatant. Next, the supernatant was subjected to ultracentrifugation (Beckman type 30 rotor, 30,000 rpm, 1 hour). The resulting precipitate was used as GPR8-expressed CHO cell membrane fraction.
The GTPγ S binding activity was assayed as follows. The GPR8-expressed CHO cell membrane fraction was diluted with a membrane dilution buffer (50 mM Tris-hydrochloride buffer (pH 7.4), 5 mM MgCl2, 150 mM NaCl, 1 μM GDP) to prepare a cell membrane fraction solution for assay having a protein level of […]. To 200 μl of the cell membrane fraction solution for assay were added 2 μl of 51.5 nM [^35S]-guanosine 5′-(γ-thio)triphosphate (NEN Co.) and a sample fluid. […] After washing twice with 1.5 ml of a wash buffer (50 mM Tris-hydrochloride buffer (pH 7.4), 5 mM MgCl2, 1 mM EDTA, 0.1% BSA), radioactivity of the filter was measured with a liquid scintillation counter. […]
A general note: GTPγS resists hydrolysis and so accumulates on activated G proteins.

As usually defined, the IC50 is the point on the concentration scale where inhibition reaches its midpoint. A high value points to weaker potency. By EC50 is commonly meant the concentration giving half of the maximal effect.

Ends that are not written are not given here. Bounds are passed on as bounds.

T1 sequence (P48146 whole entry): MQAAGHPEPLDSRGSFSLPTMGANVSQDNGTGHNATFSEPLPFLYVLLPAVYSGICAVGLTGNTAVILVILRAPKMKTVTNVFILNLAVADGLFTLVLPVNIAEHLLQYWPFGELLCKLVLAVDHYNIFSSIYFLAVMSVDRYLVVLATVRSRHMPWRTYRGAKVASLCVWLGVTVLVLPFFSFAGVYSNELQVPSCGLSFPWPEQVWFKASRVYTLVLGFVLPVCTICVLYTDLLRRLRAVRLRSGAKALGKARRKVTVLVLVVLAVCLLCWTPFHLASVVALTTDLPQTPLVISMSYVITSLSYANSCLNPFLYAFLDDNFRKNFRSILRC

Compound `CSCC[C@H](NC(=O)[C@H](CC(C)C)NC(=O)[C@H](CC(C)C)NC(=O)CNC(=O)[C@H](C)NC(=O)[C@H](C)NC(=O)[C@H](CCCNC(=N)N)NC(=O)CNC(=O)[C@@H](NC(=O)[C@@H](NC(=O)[C@H](Cc1c[nH]cn1)NC(=O)[C@H](Cc1ccc(O)cc1)NC(=O)[C@H](CCCNC(=N)N)NC(=O)[C@@H]1CCCN1C(=O)[C@H](CO)NC(=O)[C@H](C)NC(=O)[C@@H](NC(=O)[C@H](Cc1c[nH]cn1)NC(=O)[C@H](CCCCN)NC(=O)[C@H](Cc1ccc(O)cc1)NC(=O)[C@H](Cc1c[nH]c2ccccc12)NC(=O)OCC1c2ccccc2-c2ccccc21)C(C)C)[C@@H](C)O)C(C)C)C(=O)NCC(=O)N[C@@H](CC(C)C)C(=O)O` [Fmoc-hGPR8L(1–23)] gave an IC50 on GPR8 [1] of 0.2 nM.
On GPR8 [2], “H-WYKHVASPRYHTVGRAAG [hGPR8L(1–18), Trp-Tyr-Lys-His-Val-Ala-Ser-Pro-Arg-Tyr-His-Thr-Val-Gly-Arg-Ala-Ala-Gly]” yielded an EC50 of more than 10000 nM.
In the case of H-WYKHVASPRYHTVGRAAGLL [hGPR8L(1–20)], the IC50 on GPR8 [1] turned out to be 0.2 nM.
